Experimental data: patent US12528802B2, “Heterocyclic compound” (Takeda Pharmaceutical Company Limited, priority 2019, dated 2026)

Target: T1, glucosylceramide synthase (Homo sapiens, UniProt Q16739)
T1 construct: made in house; host or cells: Expi293F cells (transient expression, pcDNA3.3-TOPO vector); microsome fraction used as enzyme source
T1 sequence (Q16739 1-394): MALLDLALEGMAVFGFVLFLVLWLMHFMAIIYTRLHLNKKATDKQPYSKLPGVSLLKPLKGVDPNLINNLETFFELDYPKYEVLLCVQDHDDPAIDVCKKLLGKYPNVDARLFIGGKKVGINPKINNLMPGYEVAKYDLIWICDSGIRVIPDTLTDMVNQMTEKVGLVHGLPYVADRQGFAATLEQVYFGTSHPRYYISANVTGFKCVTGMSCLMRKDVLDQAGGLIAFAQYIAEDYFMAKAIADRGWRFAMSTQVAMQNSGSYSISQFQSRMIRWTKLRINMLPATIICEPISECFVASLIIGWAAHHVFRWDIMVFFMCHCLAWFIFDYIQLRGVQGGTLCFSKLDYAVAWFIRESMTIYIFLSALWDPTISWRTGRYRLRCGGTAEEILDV
Assay: Glucosylceramide synthase (GCS) enzyme assay, microsome fraction, C8 glucosylceramide quantified by Rapidfire MS/MS
Format: biochemical
Details: test compound 10 μM; 1.7 μM UDP-glucose, 3 μM C8 ceramide; room temperature 60 min; read-out: GCS enzyme inhibitory rate at 10 μM (%) (% of control)
In short: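 Test compound, 10 μM final, was run against human GCS from transfected Expi293F microsome fractions, using substrate solution of 6 μM C8 ceramide (in DOPC liposomes) plus 3.4 μM UDP-glucose, pH 7.5 Tris buffer, 60 min, room temperature. Product C8 glucosylceramide measured by Rapidfire MS/MS against an internal standard, % inhibition referenced to no-enzyme and DMSO wells.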

First: COCCn1cc(N2Cc3c(ccnc3-c3ccc(F)cc3OCC(F)(F)F)C2=O)cn1 [Example 154, 4-[4-fluoro-2-(2,2,2-trifluoroethoxy)phenyl]-2-[1-(2-methoxyethyl)-1H-pyrazol-4-yl]-2,3-dihydro-1H-pyrrolo[3,4-c]pyridin-1-one]
Second: O=C1c2ccnc(-c3ccc(F)cc3OCC(F)(F)F)c2CN1c1ccc(N2CCOCC2)nc1 [Example 177, 4-[4-fluoro-2-(2,2,2-trifluoroethoxy)phenyl]-2-[6-(morpholin-4-yl)pyridin-3-yl]-2,3-dihydro-1H-pyrrolo[3,4-c]pyridin-1-one]
The inhibition at 10 µM of the first is lower: 85% for the first, 98% for the second.

Compared with O=C1c2ccnc(-c3ccc(F)cc3OCC(F)(F)F)c2CN1c1ccc(C2(O)COC2)cc1 [Example 155, 4-[4-fluoro-2-(2,2,2-trifluoroethoxy)phenyl]-2-[4-(3-hydroxyoxetan-3-yl)phenyl]-2,3-dihydro-1H-pyrrolo[3,4-c]pyridin-1-one], O=C1c2ccnc(-c3ccc(F)cc3OCC(F)(F)F)c2CN1c1ccc(C2(O)CCC2)cc1 [Example 163, 4-[4-fluoro-2-(2,2,2-trifluoroethoxy)phenyl]-2-[4-(1-hydroxycyclobutyl)phenyl]-2,3-dihydro-1H-pyrrolo[3,4-c]pyridin-1-one] is higher in inhibition at 10 µM: 93% for the first, 100% for the second.

Going from N#Cc1ccc(N2Cc3ccnc(-c4ccc(F)cc4OCC(F)(F)F)c3C2)nc1 [Example 156, 6-{4-[4-fluoro-2-(2,2,2-trifluoroethoxy)phenyl]-1,3-dihydro-2H-pyrrolo[3,4-c]pyridin-2-yl}pyridine-3-carbonitrile] to Fc1ccc(N2Cc3ccnc(-c4ccc(F)cc4OCC(F)(F)F)c3C2)nc1 [Example 169, 2-(5-fluoropyridin-2-yl)-4-[4-fluoro-2-(2,2,2-trifIuoroethoxy)phenyl]-2,3-dihydro-1H-pyrrolo[3,4-c]pyridine], the inhibition at 10 µM rises from 94% to 95%.

First: CCS(=O)(=O)c1ccc(N2Cc3c(ccnc3-c3ccccc3OCC(F)(F)F)C2=O)cc1 [Example 160, 2-[4-(ethanesulfonyl)phenyl]-4-[2-(2,2,2-trifluoroethoxy)phenyl]-2,3-dihydro-1H-pyrrolo[3,4-c]pyridin-1-one]
Second: CS(=O)(=O)c1ccc(N2Cc3c(ccnc3-c3ccccc3OCC(F)(F)F)C2=O)cc1 [Example 161, 2-[4-(methanesulfonyl)phenyl]-4-[2-(2,2,2-trifluoroethoxy)phenyl]-2,3-dihydro-1H-pyrrolo[3,4-c]pyridin-1-one]
The inhibition at 10 µM of the first is higher: 99% for the first, 98% for the second.

Compared with CN(C)C(=O)c1ccc(N2Cc3c(ccnc3-c3ccccc3OCC(F)(F)F)C2=O)cc1 [Example 162, N,N-dimethyl-4-{1-oxo-4-[2-(2,2,2-trifluoroethoxy)phenyl]-1,3-dihydro-2H-pyrrolo[3,4-c]pyridin-2-yl}benzamide], CC(C)(O)c1ccc(N2Cc3c(ccnc3-c3ccccc3OCC(F)(F)F)C2=O)cn1 [Example 184, 2-[6-(2-hydroxypropan-2-yl)pyridin-3-yl]-4-[2-(2,2,2-trifluoroethoxy)phenyl]-2,3-dihydro-1H-pyrrolo[3,4-c]pyridin-1-one] is higher in inhibition at 10 µM: 95% for the first, 96% for the second.

Going from O=C1c2ccnc(-c3ccc(F)cc3OCC(F)(F)F)c2CN1c1ccc(O[C@@H]2CCOC2)cc1 [Example 164, 4-[4-fluoro-2-(2,2,2-trifluoroethoxy)phenyl]-2-(4-{[(3R)-oxolan-3-yl]oxy}phenyl)-2,3-dihydro-1H-pyrrolo[3,4-c]pyridin-1-one] to O=C1c2ccnc(-c3ccc(F)cc3OCC(F)(F)F)c2CN1c1ccc(O[C@H]2CCOC2)cc1 [Example 165, 4-[4-fluoro-2-(2,2,2-trifluoroethoxy)phenyl]-2-(4-{[(3S)-oxolan-3-yl]oxy}phenyl)-2,3-dihydro-1H-pyrrolo[3,4-c]pyridin-1-one], the inhibition at 10 µM falls from 99% to 98%.

Compared with O=C(c1ccc(N2Cc3c(ccnc3-c3ccc(F)cc3OCC(F)(F)F)C2=O)cc1)N1CCC1 [Example 166, 2-[4-(azetidine-1-carbonyl)phenyl]-4-[4-fluoro-2-(2,2,2-trifluoroethoxy)phenyl]-2,3-dihydro-1H-pyrrolo[3,4-c]pyridin-1-one], O=C(c1ccc(N2Cc3c(ccnc3-c3ccc(F)cc3OCC(F)(F)F)C2=O)cc1)N1CCCC1 [Example 180, 4-[4-fluoro-2-(2,2,2-trifluoroethoxy)phenyl]-2-[4-(pyrrolidine-1-carbonyl)phenyl]-2,3-dihydro-1H-pyrrolo[3,4-c]pyridin-1-one] is higher in inhibition at 10 µM: 87% for the first, 92% for the second.

O=C1c2ccnc(-c3ccc(F)cc3OCC(F)(F)F)c2CN1c1ccc(OC2CCOCC2)nc1 [Example 167, 4-[4-fluoro-2-(2,2,2-trifluoroethoxy)phenyl]-2-{6-[(oxan-4-yl)oxy]pyridin-3-yl}-2,3-dihydro-1H-pyrrolo[3,4-c]pyridin-1-one] and COC1(c2ccc(N3Cc4c(ccnc4-c4ccc(F)cc4OCC(F)(F)F)C3=O)cc2)COC1 [Example 178, 4-[4-fluoro-2-(2,2,2-trifluoroethoxy)phenyl]-2-[4-(3-methoxyoxetan-3-yl)phenyl]-2,3-dihydro-1H-pyrrolo[3,4-c]pyridin-1-one] are the same in inhibition at 10 µM: 98% for the first, 98% for the second.

First: Fc1ccc(N2Cc3ccnc(-c4ccccc4OCC(F)(F)F)c3C2)cc1 [Example 168, 2-(4-fluorophenyl)-4-[2-(2,2,2-trifluoroethoxy)phenyl]-2,3-dihydro-1H-pyrrolo[3,4-c]pyridine]
Second: COc1ccccc1-c1nccc2c1CN(c1ccc(F)cc1)C2 [Example 172, 2-(4-fluorophenyl)-4-(2-methoxyphenyl)-2,3-dihydro-1H-pyrrolo[3,4-c]pyridine]
The inhibition at 10 µM of the first is higher: 100% for the first, 91% for the second.

Compared with COc1cnccc1-c1nccc2c1CN(c1ccc(F)cc1)C2 [Example 170, 2-(4-fluorophenyl)-4-(3-methoxypyridin-4-yl)-2,3-dihydro-1H-pyrrolo[3,4-c]pyridine], COc1ccccc1-n1ncc2c1CN(c1ccc(F)cc1)C2 [Example 183, 5-(4-fluorophenyl)-1-(2-methoxyphenyl)-1,4,5,6-tetrahydropyrrolo[3,4-c]pyrazole] is lower in inhibition at 10 µM: 88% for the first, 83% for the second.

First: CC(C)(C#N)COc1cc(F)ccc1-c1nccc2c1CN(c1ccc(OC(F)F)nc1)C2=O [Example 171, 3-(2-{2-[6-(difluoromethoxy)pyridin-3-yl]-1-oxo-2,3-dihydro-1H-pyrrolo[3,4-c]pyridin-4-yl}-5-fluorophenoxy)-2,2-dimethylpropanenitrile]
Second: O=C1c2ccnc(-c3ccc(F)cc3OCCOC(F)(F)F)c2CN1c1ccc(OC(F)F)nc1 [Example 174, 2-[6-(difluoromethoxy)pyridin-3-yl]-4-{4-fluoro-2-[2-(trifluoromethoxy)ethoxy]phenyl}-2,3-dihydro-1H-pyrrolo[3,4-c]pyridin-1-one]
The inhibition at 10 µM of the first is lower: 52% for the first, 99% for the second.

Cc1cncc(OCC(F)(F)F)c1-c1nccc2c1CN(c1ccc(OC(F)F)cc1)C2=O [Example 175, 2-[4-(difluoromethoxy)phenyl]-4-[3-methyl-5-(2,2,2-trifluoroethoxy)pyridin-4-yl]-2,3-dihydro-1H-pyrrolo[3,4-c]pyridin-1-one ditrifluoroacetate] and O=C1c2ccnc(-c3ccccc3OCC(F)(F)F)c2CN1c1ccc(O[C@@H]2CCOC2)cc1 [Example 187, 2-(4-{[(3R)-oxolan-3-yl]oxy}phenyl)-4-[2-(2,2,2-trifluoroethoxy)phenyl]-2,3-dihydro-1H-pyrrolo[3,4-c]pyridin-1-one] are the same in inhibition at 10 µM: 100% for the first, 100% for the second.

Compared with O=C1C2=C(CN1c1ccc(OCC(F)(F)F)cc1)C(c1ccc(F)cc1OCC(F)(F)F)=NCCN2 [Example 176, 5-[4-fluoro-2-(2,2,2-trifluoroethoxy)phenyl]-7-[4-(2,2,2-trifluoroethoxy)phenyl]-2,3,6,7-tetrahydropyrrolo[3,4-e][1,4]diazepin-8(1H)-one], CN1CCN=C(c2ccc(F)cc2OCC(F)(F)F)C2=C1C(=O)N(c1ccc(OCC(F)(F)F)cc1)C2 [Example 179, 5-[4-fluoro-2-(2,2,2-trifluoroethoxy)phenyl]-1-methyl-7-[4-(2,2,2-trifluoroethoxy)phenyl]-2,3,6,7-tetrahydropyrrolo[3,4-e][1,4]diazepin-8(1H)-one] is lower in inhibition at 10 µM: 100% for the first, 91% for the second.

Compared with O=C(c1ccc(N2Cc3c(ccnc3-c3ccc(F)cc3OCC(F)(F)F)C2=O)cc1)N1CC(F)(F)C1 [Example 181, 2-[4-(3,3-difluoroazetidine-1-carbonyl)phenyl]-4-[4-fluoro-2-(2,2,2-trifluoroethoxy)phenyl]-2,3-dihydro-1H-pyrrolo[3,4-c]pyridin-1-one], O=C(c1ccc(N2Cc3c(ccnc3-c3ccc(F)cc3OCC(F)(F)F)C2=O)cc1)N1CCC(F)(F)CC1 [Example 182, 2-[4-(4,4-difluoropiperidine-1-carbonyl)phenyl]-4-[4-fluoro-2-(2,2,2-trifluoroethoxy)phenyl]-2,3-dihydro-1H-pyrrolo[3,4-c]pyridin-1-one] is higher in inhibition at 10 µM: 89% for the first, 99% for the second.

O=C1c2ncnc(-c3ccc(F)cc3OCC(F)(F)F)c2CN1c1ccc(F)cc1 [Example 185, 6-(4-fluorophenyl)-4-[4-fluoro-2-(2,2,2-trifluoroethoxy)phenyl]-5,6-dihydro-7H-pyrrolo[3,4-d]pyrimidin-7-one] showed an inhibition at 10 µM of 71%.
